Measurements published in US10034886B2, “GLP-1 receptor modulators” (Celgene International II SÀRL, priority 2014, dated 2018).
pEC50: −log10 of the molar value.

Target: T1, GLP-1R (Homo sapiens, UniProt P43220)
T1 construct: host or cells: GLP-1R CRE-bla CHO-K1 cells
Assay: EC20 GLP-1(9-36) PAM cAMP assay: dose response of compound in the presence of fixed concentration of GLP-1(9-36)
Format: cell-based
Conditions: GLP-1R CRE-bla CHO-K1 cells, compound dose response with fixed concentration of GLP-1(9-36), read-out: EC20 GLP-1(9-36) PAM EC50
In short: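 Positive allosteric modulation read as cAMP accumulation: compound titrations (12 points) combined with an EC20 level of GLP-1(9-36) on CHO-K1 GLP-1R CRE-bla cells, IBMX present, 30 min, 37 °C, pH 7.4 buffer. Luminescence converted to cAMP via standards; non-linear fit gave EC50 and Emax.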

T1 sequence (P43220 24-463): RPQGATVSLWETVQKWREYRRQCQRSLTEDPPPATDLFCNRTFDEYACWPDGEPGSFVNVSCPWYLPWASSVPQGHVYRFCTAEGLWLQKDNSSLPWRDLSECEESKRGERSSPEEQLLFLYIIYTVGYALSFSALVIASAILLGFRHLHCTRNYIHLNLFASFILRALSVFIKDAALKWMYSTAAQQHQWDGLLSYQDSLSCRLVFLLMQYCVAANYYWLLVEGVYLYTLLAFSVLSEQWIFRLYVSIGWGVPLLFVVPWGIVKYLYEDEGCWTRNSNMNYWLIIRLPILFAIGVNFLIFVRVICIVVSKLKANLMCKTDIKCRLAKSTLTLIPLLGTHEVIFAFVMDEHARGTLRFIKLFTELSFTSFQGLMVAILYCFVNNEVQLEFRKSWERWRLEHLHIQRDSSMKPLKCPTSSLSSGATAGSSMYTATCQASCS
T1 sequence (P01275 100-127 partner limits assumed): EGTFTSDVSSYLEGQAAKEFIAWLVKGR

pEC50 | SMILES
> 6.10 | CCC[C@H]1CC[C@H](C2CCN(c3cnc(-c4ccc(C[C@H](NC(=O)c5ccc(C(C)(C)C)s5)C(=O)N5CC(OC)(C(=O)O)C5)cc4)nc3)CC2)CC1 [Compound 1452]
> 6.10 | CCCc1ccc(-c2ccc(-c3cnc(-c4ccc(C[C@H](NC(=O)c5ccc(C(C)(C)CC)cc5)C(=O)N5CC(C(=O)O)C5)cc4)nc3)c(F)c2)cc1 [Compound 1402]
> 6.10 | CCC[C@H]1CC[C@H](C2CCN(c3cnc(-c4ccc(CC(NC(=O)c5ccc(C(C)(C)C)s5)C(=O)NS(=O)(=O)CCOC)cc4)nc3)CC2)CC1 (stereo partly drawn) [Compound 1540]
> 6.10 | CCOc1ccc(-c2ccc(-c3cnc(-c4ccc(C[C@H](NC(=O)c5ccc(C(C)(C)C)s5)C(=O)N5CC(C(=O)O)C5)cc4)nc3)c(F)c2)cc1 [Compound 1330]
> 6.10 | CC(C)(C)c1ccc(C(=O)N[C@@H](Cc2ccc(-c3ncc(-c4ccc(-c5ccc(C6CCCCC6)cc5)cc4F)cn3)cc2)C(=O)N2CC(C(=O)O)C2)s1 [Compound 1212]
> 6.10 | COc1ccc(C2CCN(c3cnc(-c4ccc(CC(NC(=O)c5ccc(C(C)(C)C)s5)C(=O)N5CC(C(=O)O)C5)cc4)nc3)CC2)cc1 (stereo not drawn) [Compound 1489]
> 6.10 | CCCc1ccc(C2CCN(c3cnc(-c4ccc(C[C@H](NC(=O)c5ccc(C(C)(C)C)s5)C(=O)N5CC(C(=O)O)C5)cc4)nc3)CC2)cc1 [Compound 1432]
5.60 to 6.10 | CC(C)(C)c1ccc(C(=O)NC(Cc2ccc(-c3ncc(N4CCC(c5cccc(F)c5)CC4)cn3)cc2)C(=O)N2CC(C(=O)O)C2)s1 (stereo not drawn) [Compound 1484]
> 6.10 | CC[C@H]1CC[C@H](c2ccc(-c3cnc(-c4ccc(C[C@H](NC(=O)c5ccc(C(C)C)s5)C(=O)O)cc4)nc3)cc2)CC1 [Compound 1389]
5.00 to 5.30 | C[C@@H](NC(=O)[C@H](Cc1ccc(-c2ncc(N3CCN(CC4CCCCC4)C3=O)cn2)cc1)NC(=O)c1ccc(C(C)(C)C)s1)C(=O)O [Compound 1267]
5.60 to 6.10 | CCC[C@H]1CC[C@H](C2CCN(c3cnc(-c4ccc(CC(NC(=O)c5ccc(C(C)(C)C)s5)C(=O)NS(=O)(=O)CCC5CCC5)cc4)nc3)CC2)CC1 (stereo partly drawn) [Compound 1541]

Same assay, conditions: dose response of compound in presence of fixed concentration of GLP-1(9-36), GLP-1R CRE-bla CHO-K1 cells, read-out: EC20 GLP-1(9-36) PAM EC50

pEC50 | SMILES
5.00 to 5.30 | CC(C)(C)c1ccc(C(=O)N[C@@H](Cc2ccc(-c3ncc(-c4ccc(OCC5CC5)cc4)cn3)cc2)C(=O)NCCC(=O)O)cc1 [Compound 684]
5.00 to 5.30 | CCCCCCCOc1ccc(-c2cnc(-c3ccc(C[C@H](NC(=O)c4ccc(C(C)(C)C)s4)C(=O)N4CC(C(N)=O)C4)cc3)nc2)cc1 [Compound 972]
> 6.10 | CCCCCCCOc1ccc(-c2cnc(-c3ccc(C[C@H](NC(=O)c4ccc(C(C)(C)C)cc4)C(=O)N4CCC(O)C(C(=O)O)C4)cc3)nc2)cc1 (stereo partly drawn) [Compound 661]
5.30 to 5.60 | Cc1ccc(/C=C/c2cnc(-c3ccc(C[C@H](NC(=O)c4ccc(C(C)(C)C)s4)C(=O)N[C@H](C)C(=O)O)cc3)nc2)cc1 [Compound 1052]
5.60 to 6.10 | CCCCCCCOc1ccc(-c2cnc(-c3ccc(C[C@H](NC(=O)c4ccc(C(C)(C)C)s4)C(=O)NC(Cc4nccs4)C(=O)O)cc3)nc2)cc1 (stereo partly drawn) [Compound 592]
5.60 to 6.10 | CCCCCCCOc1ccc(-c2cnc(-c3ccc(C[C@H](NC(=O)c4ccc(C(C)(C)C)s4)C(=O)NCCCN(C)C)cc3)nc2)cc1 [Compound 962]
5.30 to 5.60 | CC[C@H]1CC[C@H](c2ccc(-c3cnc(-c4ccc(C[C@H](NC(=O)c5ccc(C(C)=O)cc5)C(=O)N5CC(C(=O)O)C5)cc4)nc3)cc2)CC1 [Compound 1162]
5.60 to 6.10 | CCCCCCCOc1ccc(-c2cnc(-c3ccc(C[C@H](NC(=O)c4ccc(C(C)(C)C)s4)C(=O)NC(C(=O)O)C(O)c4cccnc4)cc3)nc2)cc1 (stereo partly drawn) [Compound 907]
5.60 to 6.10 | CCCCCCCOc1ccc(-c2cnc(-c3ccc(C[C@H](NC(=O)c4ccc(CCC)s4)C(=O)N4CC[C@H](C(=O)O)C4)cc3)nc2)cc1 [Compound 864]
> 6.10 | CCCCCCCOc1ccc(-c2cnc(-c3ccc(C[C@H](NC(=O)c4ccc(C(C)(C)C)s4)C(=O)NC(CCS(C)(=O)=O)C(=O)O)cc3)nc2)cc1 (stereo partly drawn) [Compound 597]
> 6.10 | CCCCCCCOc1ccc(-c2cnc(-c3ccc(C[C@H](NC(=O)c4ccc(C(C)(C)C)s4)C(=O)NC(C(=O)O)C4CCOCC4)cc3)nc2)cc1 (stereo partly drawn) [Compound 396]
5.30 to 5.60 | CCC(CC)Oc1ccc(-c2cnc(-c3ccc(C[C@H](NC(=O)c4ccc(C(C)(C)C)cc4)C(=O)NCCC(=O)O)cc3)nc2)cc1 [Compound 696]
5.00 to 5.30 | CCCCCCCOc1ccc(-c2nc(-c3ccc(C[C@H](NC(=O)c4ccc(C(C)(C)C)cc4)C(=O)N[C@H](C)C(=O)O)cc3)no2)cc1 [Compound 801]
> 6.10 | CCCCCCCOc1ccc(-c2cnc(-c3ccc(C[C@H](NC(=O)c4ccc(C(C)(C)C)s4)C(=O)N[C@H](C(=O)O)[C@H](C)O)cc3)nc2)cc1 [Compound 646]
5.60 to 6.10 | CCc1ccc(/C=C/c2cnc(-c3ccc(C[C@H](NC(=O)c4ccc(C(C)(C)C)s4)C(=O)N4CC(C(=O)O)C4)cc3)nc2)cc1 [Compound 1092]
5.60 to 6.10 | CCCCCCCOc1ccc(-c2cnc(-c3ccc(C[C@H](NC(=O)c4ccc(C(C)(C)C)cc4)C(=O)N[C@@H](Cc4cnn(C)c4)C(=O)O)cc3)nc2)cc1 [Compound 576]
> 6.10 | CCc1ccc(C(=O)N[C@@H](Cc2ccc(-c3ncc(-c4ccc([C@H]5CC[C@H](CC)CC5)cc4)cn3)cc2)C(=O)N2CC(C(=O)O)C2)cc1 [Compound 1168]
5.60 to 6.10 | C[C@@H](NC(=O)[C@H](Cc1ccc(-c2ncc(-c3ccc(C4CCCC4)cc3)cn2)cc1)NC(=O)c1ccc(C(C)(C)C)s1)C(=O)O [Compound 1046]
5.30 to 5.60 | CCCCCc1ccc(-c2cnc(-c3ccc(C[C@H](NC(=O)c4ccc(C(C)(C)C)cc4)C(=O)NCCC(=O)O)cc3)nc2)cc1 [Compound 676]
5.60 to 6.10 | CCCCCCOc1ccc(-c2cnc(-c3ccc(C[C@H](NC(=O)c4ccc(C(C)(C)C)s4)C(=O)N4CC[C@H](C(=O)O)C4)cc3)nc2)cc1 [Compound 763]

pEC50 | SMILES
5.30 to 5.60 | Cc1ccccc1-c1ccc(-c2cnc(-c3ccc(C[C@H](NC(=O)c4ccc(C(C)(C)C)s4)C(=O)N[C@H](C)C(=O)O)cc3)nc2)cc1 [Compound 1023]
> 6.10 | CCCCCCCCOc1ccc(-c2cnc(-c3ccc(C[C@H](NC(=O)c4ccc(C(C)(C)C)s4)C(=O)N4CC[C@H](C(=O)O)C4)cc3)nc2)cc1 [Compound 764]
5.30 to 5.60 | CCCOc1ccc(-c2cnc(-c3ccc(C[C@H](NC(=O)c4ccc(C(C)(C)C)s4)C(=O)N4CC[C@H](C(=O)O)C4)cc3)nc2)cc1 [Compound 761]
5.60 to 6.10 | CCCCCCCOc1ccc(-c2cnc(-c3ccc(C[C@H](NC(=O)c4ccc(C(C)(C)C)cc4)C(=O)NC(CN(C)C)C(=O)O)cc3)nc2)cc1 (stereo partly drawn) [Compound 447]
5.60 to 6.10 | CCCCCCCOc1ccc(-c2cnc(-c3ccc(C[C@H](NC(=O)c4ccc(C(C)(C)C)cc4)C(=O)N4C[C@H](O)C[C@@H]4C(=O)O)cc3)nc2)cc1 [Compound 585]
5.30 to 5.60 | CCOc1cc(-c2cnc(-c3ccc(C[C@H](NC(=O)c4ccc(C(C)(C)C)s4)C(=O)N[C@H](C)C(=O)O)cc3)nc2)cc(C(F)(F)F)c1 [Compound 1036]
5.30 to 5.60 | CC(C)N(C(=O)c1ccc(-c2cnc(-c3ccc(C[C@H](NC(=O)c4ccc(C(C)(C)C)s4)C(=O)N[C@H](C)C(=O)O)cc3)nc2)cc1)C(C)C [Compound 1028]
5.60 to 6.10 | CCCCCCCOc1ccc(-c2cnc(-c3ccc(C[C@H](NC(=O)c4ccc(CCC)cc4)C(=O)N4CC(C(=O)O)C4)cc3)nc2)cc1 [Compound 1112]
> 6.10 | CC1(C)CCC(c2ccc(-c3cnc(-c4ccc(C[C@H](NC(=O)c5ccc(C(C)(C)C)s5)C(=O)N5CC(C(=O)O)C5)cc4)nc3)cc2)CC1 [Compound 1088]
5.60 to 6.10 | CCCCCCCOc1ccc(-c2cnc(-c3ccc(C[C@H](NC(=O)c4ccc(S(C)(=O)=O)cc4)C(=O)N[C@H](C)C(=O)O)cc3)nc2)cc1 [Compound 816]
> 6.10 | CCCCCCCOc1ccc(-c2cnc(-c3ccc(C[C@H](NC(=O)c4ccc(C(C)(C)C)s4)C(=O)N4CC(OC)(C(=O)O)C4)cc3)nc2)cc1 [Compound 873]
5.60 to 6.10 | CCCCCCCOc1ccc(-c2cnc(-c3ccc(C[C@H](NC(=O)c4ccc(C(C)(C)C)s4)C(=O)NC(C(=O)O)C(O)c4cccs4)cc3)nc2)cc1 (stereo partly drawn) [Compound 888]
> 6.10 | CCCCCCCOc1ccc(-c2cnc(-c3ccc(C[C@H](NC(=O)c4ccc(C(C)(C)C)s4)C(=O)N[C@H](C)C(=O)O)cc3)nc2)nc1 [Compound 1063]
> 6.10 | CCCCCCCOc1ccc(-c2cnc(-c3ccc(C[C@H](NC(=O)c4ccc(C(C)(C)C)cc4)C(=O)NCC(Cc4ccc(O)cc4)C(=O)O)cc3)nc2)cc1 (stereo partly drawn) [Compound 558]
5.60 to 6.10 | COc1ccc(-c2ccc(-c3cnc(-c4ccc(C[C@H](NC(=O)c5ccc(C(C)(C)C)s5)C(=O)N[C@H](C)C(=O)O)cc4)nc3)cc2)cc1 [Compound 1002]
5.00 to 5.30 | CCCCCCc1noc(-c2ccc(-c3cnc(-c4ccc(C[C@H](NC(=O)c5ccc(C(C)(C)C)cc5)C(=O)NCCC(=O)O)cc4)nc3)cc2)n1 [Compound 756]
5.00 to 5.30 | CCCCCCCOc1ccc(-c2cnc(-c3ccc(C[C@H](NC(=O)c4ccc(C(C)(C)C)s4)C(=O)N4CC[C@H](O)C4)cc3)nc2)cc1 [Compound 977]
5.30 to 5.60 | C[C@@H](NC(=O)[C@H](Cc1ccc(-c2ncc(-c3ccc(Cl)cc3)cn2)cc1)NC(=O)c1ccc(C(C)(C)C)s1)C(=O)O [Compound 1029]
5.00 to 5.30 | CCCCCOc1ccc(-c2cnc(-c3ccc(C[C@H](NC(=O)c4ccc(C(C)(C)C)s4)C(=O)N4CC[C@H](C(=O)O)C4)cc3)nc2)cc1 [Compound 762]

SMILES | pEC50
CCCCCCCOc1ccc(-c2cnc(-c3ccc(C[C@H](NC(=O)c4ccc(C(C)(C)C)s4)C(=O)N[C@H](CC)C(=O)O)cc3)nc2)cc1 [Compound 402] | > 6.10
